Experimental data: patent publication US20200289495A1, “METHODS OF INHIBITING ENDOTHELIN B RECEPTOR EXPRESSING TUMOR METASTASES” (ENB Therapeutics, Inc., priority 2020, published 2020)
“Also recorded” adds a separate entry of the source.

Experiments:
[1] = system: melanoma cell lines overexpressing ETBR; assay: Mouse melanoma brain metastasis model (xenografts of ETBR-overexpressing melanoma cell lines); type: in vivo, mice; conditions: 60 mg/kg/day
Procedure: FIGS. 5A, 5B, 5C, 5D, and 5E. ETBR antagonist inhibits melanoma brain metastasis in mice. […] In this study, lentiviral vectors were used to overexpress ETBR in melanoma cell lines, which were in turn used to implant xenografts in mice.
A192621 inhibits melanoma brain metastasis in mice (FIGS. 5A, 5B, 5C, 5D, and 5E). […] A192621 was administered at a dose of 60 mg/kg/day using a mouse melanoma model. […] In this study, lentiviral vectors were used to overexpress ETBR in melanoma cell lines, which were in turn used to implant xenografts in mice. […]

[2] = Body weight of athymic nude mice under intranasal BQ788; type: in vivo
Procedure: FIG. 9. ETAR antagonist and Niacinamide mitigate weight loss from BQ788. Six week old athymic nude mice were administered the ETBR antagonist BQ788 intranasally in 20% DMSO at the indicated ascending doses over a period of 42 days. One group was additionally administered the ETAR antagonist Macitentan orally at a dose of 5 mg/kg daily. The drinking water of these mice was supplemented with the B vitamin niacinamide at a concentration of 0.3 mg/mL. […] Co-administration of the ETAR antagonist Macitentan with niacinamide supplementation mitigated this weight loss. […] Co-administration of ETAR antagonists and niacinamide with ETBR antagonists mitigated the adverse effects of ETBR antagonists when administered for therapeutic purposes.
ETAR antagonist and Niacinamide mitigate weight loss from B0788 (FIG. 9). Six week old athymic nude mice (n=3 per group) were administered the ETBR antagonist BQ788 intranasally in 20% DMSO at the indicated ascending doses over a period of 42 days. One group was additionally administered the ETAR antagonist Macitentan orally at a dose of 5 mg/kg daily. The drinking water of these mice was supplemented with the B vitamin niacinamide at a concentration of 0.3 mg/mL. […] Co-administration of the ETAR antagonist Macitentan with niacinamide supplementation mitigated this weight loss. […]

[3] = system: SKMEL28 human melanoma cells; assay: SKMEL28 human melanoma xenograft growth and lung metastasis in mice; type: in vivo
Procedure: FIGS. 4A and 4B. BQ788 inhibits melanoma growth and metastasis.
B0788 inhibits melanoma growth and metastasis (FIGS. 4A and 4B). […] Mice were implanted with 1×10^6 SKMEL28 human melanoma cells. Tumors were established for 10 days until palpable then 120 ng ([…]) BQ788 dissolved in DMSO was injected IP 3×per week×6 weeks. Mice were then sacrificed and lungs harvested and tumors weighed. A 75% reduction in tumor weight was observed.

[4] = system: A375 human melanoma cells; assay: A375 subcutaneous melanoma xenograft in Nu/J nude mice; type: in vivo; conditions: Dabrafenib 100 mg/Kg PO daily, alone or + BQ788 600 ng IP TIW; day 11, p<0.05
Procedure: FIG. 7. BQ788 synergizes with Dabrafenib in vivo. A375 human melanoma cells were implanted subcutaneously into the rear flank of Nu/J nude mice and allowed to grow to 150 mm3-200 mm3 prior to randomization and initiation of treatment. The mice received the following treatments: (1) vehicle (n=8), (2) Dabrafenib 100 mg/Kg PO daily (n=5), and (3) Dabrafenib+BQ788 600 ng IP TIW (n=5).
B0788 synergizes with a bRAF inhibitor in vivo (FIG. 7). A375 human melanoma cells (3×10^6) were implanted subcutaneously into the rear flank of Nu/J nude mice and allowed to grow to 150 mm3-200 mm3 prior to randomization and initiation of treatment. The treatment groups were as follows: (1) vehicle (n=8), Dabrafenib 100 mg/Kg PO daily (n=5), (2) Dabrafenib+BQ788 600 ng IP 3×per week (n=5).

CCCOc1ccc([C@H]2[C@H](C(=O)O)[C@@H](c3ccc4c(c3)OCO4)CN2CC(=O)Nc2c(CC)cccc2CC)cc1 [A192621, (2R,3R,4S)-4-(1,3-benzodioxol-5-yl)-1-[2-(2,6-diethylanilino)-2-oxoethyl]-2-(4-propoxyphenyl)pyrrolidine-3-carboxylic acid]
CNS melanoma tumors [1]: shrinks CNS melanoma tumors
brain melanoma metastases [1]: shrinks brain melanoma metastases
survival [1]: increases survival

CCCC[C@@H](NC(=O)[C@@H](Cc1cn(C(=O)OC)c2ccccc12)NC(=O)[C@H](CC(C)(C)C)NC(=O)N1[C@H](C)CCC[C@@H]1C)C(=O)O [BQ788]
average weight loss relative to baseline body weight ([2]; BQ788 intranasally in 20% DMSO, ascending doses over 42 days, end of study): 5%
body weight / thriving ([2]; BQ788 intranasally over 42 days, alone or with Macitentan 5 mg/kg daily orally and niacinamide 0.3 mg/mL in drinking water): failed to thrive
clearance of lung metastases ([3]; 120 ng (˜60 ug/kg) BQ788 in DMSO IP 3× per week × 6 weeks, lungs vs control mice): > 95%
apoptosis in melanoma tumor cells ([3]; FIGS. 4A and 4B): induces apoptosis

CC(C)(C)c1nc(-c2cccc(NS(=O)(=O)c3c(F)cccc3F)c2F)c(-c2ccnc(N)n2)s1 [Dabrafenib]
tumor growth [4]: retarded the growth of tumors; also recorded: retarded tumor growth
